Test results from US20100249064A1, “METHODS AND COMPOSITIONS FOR TREATING DISEASES AND CONDITIONS INVOLVING HIGHER MOLECULAR WEIGHT HYALURONAN” (University of Chicago, priority 2007, published 2010).
Entries after “also recorded” stand apart in the source; their conditions may differ.

What was measured:
[1] = tested on: LPS-induced murine lung vascular permeability; assay: LPS-induced murine lung vascular permeability, bronchioalveolar lavage (BAL) protein and cytokines; type: in vivo, mouse; settings: for LPS-induced pulmonary hyper-permeability (BAL protein concentration): wildtype C57BL/6J mice, LPS 2.5 mg/kg intratracheally, HMW-HA 1.5 mg/kg or HGF 50 μg/kg intravenously 4 hours after LPS, BAL at 24 hours
Description: Animal Preparation and Treatment—Male C57BL/6J and CD44 knockout mice (8-10 weeks, Jackson Laboratories, Bar Harbor, Me.) were anesthetized with intraperitoneal ketamine (150 mg/kg) and acetylpromazine (15 mg/kg) according to approved protocols. LPS (2.5 mg/kg) or saline (control) were instilled intratracheally and four hours later, HGF (50 μg/kg) or saline control delivered intravenously through the internal jugular vein. The animals were allowed to recover for 24 h followed by bronchioalveolar lavage protein analysis and/or lung immunohistochemistry.
Determination of Bronchioalveolar Lavage Protein Concentration—Bronchioalveolar lavage (BAL) was performed by an intratracheal injection of 1 cc of Hank's balanced salt solution followed by gentle aspiration. The recovered fluid was processed for protein concentration (BCA Protein Assay Kit; Pierce Chemical Co., Rockford, Ill.) as described (Su et al., 2004).
Animals. Male C57BL/6J mice, CD44 knockout mice, Caveolin-1 knockout mice (8-10 weeks, Jackson Laboratories, Bar Harbor, Me.) were anesthetized with intraperitoneal ketamine (150 mg/kg) and acetylpromazine (15 mg/kg) according to approved protocols. LPS (2.5 mg/kg) or saline (control) were instilled intratracheally and four hours later, HMW-HA (1.5 mg/kg) or saline control delivered intravenously through the internal jugular vein. The animals were allowed to recover for 24 hours followed by bronchioalveolar lavage protein analysis and/or lung immunohistochemistry.
Determination of protein concentration. Total protein concentration. TGF-alpha concentration. TGF-beta1 concentration. Bronchioalveolar lavage (BAL) was performed by an intratracheal injection of 1 cc of Hank's balanced salt solution followed by gentle aspiration. The recovered fluid was processed for protein concentration (BCA Protein Assay Kit; Pierce Chemical Co., Rockford, Ill.) or used to determine TNF-α and TGF-β1 concentrations using quantitative sandwich enzyme immunoassays (R & D Systems, Minneapolis, Minn.).
Animal Preparation and Treatment. Male C57BL/6J, B6129N2, CD44^−/− or caveolin-1^−/− mice (8-10 weeks, Jackson Laboratories, Bar Harbor, Me.) were anesthetized with intraperitoneal ketamine (150 mg/kg) and acetylpromazine (15 mg/kg) before exposure of the right internal jugular vein via neck incision. LPS (2.5 mg/kg) or water (control) were instilled intratracheally. Four hours later, mice receive high MW HA (1.5 mg/kg) or water control through the internal jugular vein. The animals were allowed to recover for 24 hours after LPS before bronchioalveolar lavage protein and cytokine concentration and/or lung immunohistochemistry/immunoblot analysis (Peng et al., 2004).
Determination of Bronchoavleolar Lavage Protein and Cytokine Concentration. Bronchioalveolar lavage (BAL) was performed by an intratracheal injection of 1 cc of Hank's balanced salt solution followed by gentle aspiration. The recovered fluid was processed for protein concentration (BCA Protein Assay Kit; Pierce Chemical Co., Rockford, Ill.) (Peng et. al., 2004). Cytokines (IL-6, TNFalpha) were measured using a Quantikine sandwich ELISA kit (R & D Systems).

hyaluronidase = assay: VEGF-induced hyaluronidase expression (immunoblot); type: cell-based, human; settings: 100 nM HMW-HA, 100 nM VEGF
Description: Determination of the role of HMW-HA/CD44 interactions in regulating hyaluronidase activity and angiogenesis in vitro. Human pulmonary microvascular EC (HPMVEC) (Cambrex), grown in EBM-2 complete medium (Cambrex) at 37° C. in a humidified atmosphere of 5% CO2, 95% air, with passages 6-10 used for experimentation was treated with or without 100 nM HMW-HA and/or 100 nM VEGF in the presence or absence of CD44 isoform-specific blocking antibodies (EMD Biosciences), siRNA (scramble, CD44, Hyal-1, Hyal-2, Hyal-3 or Hyal-4) and the potent hyaluronidase inhibitor, L-ascorbic acid 6-hexadecanoate (Botzki et al., 2004) (Sigma). […] Treated EC will either be analyzed for protein expression, hyaluronidase activity or VEGF-induced proliferation, migration or tube formation. […] Cells from the upper and lower chamber were quantitated using the CellTiter96™ MTS assay (Promega, San Luis Obispo, Calif.) and read at 492 nm. % migration was defined as the # of cells in the lower chamber […] the number of cells in both the upper and lower chamber. Each assay was set up in triplicate, repeated at least five times and analyzed statistically by Student's t test (with statistical significance set at P<0.05). […] The in vitro cell proliferation assay was analyzed by measuring increases in cell number using the CellTiter96™ MTS assay (Promega, San Luis Obispo, Calif.) and read at 492 nm. […]

[2] = wild type mice, LPS 2.5 mg/kg, HMW-HA 1.5 mg/kg i.v. after 4 hours

Substance: hyaluronan [HMW-HA]
- protective effect on LPS-induced pulmonary hyper-permeability (BAL) in knockout mice ([1]; CD44 knockout (and, where stated, Caveolin-1 knockout) mice, same regimen): markedly attenuated in the CD44 knockout mouse; also recorded: did not protect from LPS-induced ALI in CD44 and Caveolin-1 knockout mice; also recorded: protection was blocked in the CD44 knockout mouse; also recorded: but not the CD44 knockout
- TGF-alpha concentration in BAL fluids [1, 2]: reduced the enhancing effect of LPS
- TGF-beta1 concentration in BAL fluids [1, 2]: reduced the enhancing effect of LPS
- LPS-induced pulmonary hyper-permeability (BAL protein concentration) [1]: pulmonary hyper-permeability was attenuated; also recorded: significant difference (p<0.05) between LPS and HMW-HA+LPS treatment in the wildtype
- LPS-induced pulmonary hyper-permeability (BAL protein concentration) ([1]; listed as HWM-HA): protected from LPS-induced vascular leakiness in vivo
- LPS-induced pulmonary hyper-permeability (BAL protein concentration) ([1]; listed as High MW hyaluronan): reduced the enhancing effect of LPS on BAL protein concentration
- LPS-induced pulmonary hyper-permeability (BAL protein concentration) ([1]; listed as high MW HA): attenuated the vascular hyper-permeability
- VEGF-induced hyaluronidase expression (hyaluronidase): inhibited VEGF-induced hyaluronidase expression
